Assays:
Type in all cases: biochemical
ROCK1 = target: T1, ROCK1 (Homo sapiens, UniProt Q13464); test: ROCK1 kinase assay (Promega)
T1 construct: purchased Promega
Method: (§1) hGWLFL, 100 µl of lysate was diluted 5-fold with IP buffer and combined with 3 µl anti-Flag M2 magnetic Dynabeads [Sigma-Aldrich] overnight at 4 °C. After sequential washes with IP buffer, 1:1 mix of IP and kinase assay buffers and a final wash in kinase assay buffer, the beads were then used in the kinase assay. The reaction was stopped by adding SDS loading buffer and analysed by western blot: p-ENSA and GWL levels were detected using the anti-phospho(Ser67)-ENSA and anti-MASTL(GWL, Prestige) antibodies. Activity was measured as the p-ENSA/GWL ratio and % kinase activity was normalised to the DMSO control. All kinases assays were repeated thrice per assay condition and each point on the concentration-dependent response curves represents the mean ± 1 S.D.
(§2) PKA, ROCK1 and CDK2 kinase assays […]
(§3) Data were normalised against the AllStars negative control siRNA treated cells and values obtained from 3 – 5 biological replicates were reported as the mean ± 1 S.D.

hGWL^FL = target: T2, hGWL^FL (Homo sapiens, UniProt Q96GX5); test: Immunoprecipitation kinase assay with Flag-tagged hGWL^FL (p-ENSA western); conditions: for IC50: immunoprecipitated Flag-tagged hGWL^FL, read-out: IC50 GWL^FL; for inhibition of hGWL^FL (result in words): immunoprecipitation kinase assay
T2 construct: N-terminally FLAG-tagged full-length human GWL; made in house; host or cells: HEK293T cells, transfected and nocodazole-arrested; protein captured on anti-Flag M2 beads
T2 sequence (Q96GX5 1-879): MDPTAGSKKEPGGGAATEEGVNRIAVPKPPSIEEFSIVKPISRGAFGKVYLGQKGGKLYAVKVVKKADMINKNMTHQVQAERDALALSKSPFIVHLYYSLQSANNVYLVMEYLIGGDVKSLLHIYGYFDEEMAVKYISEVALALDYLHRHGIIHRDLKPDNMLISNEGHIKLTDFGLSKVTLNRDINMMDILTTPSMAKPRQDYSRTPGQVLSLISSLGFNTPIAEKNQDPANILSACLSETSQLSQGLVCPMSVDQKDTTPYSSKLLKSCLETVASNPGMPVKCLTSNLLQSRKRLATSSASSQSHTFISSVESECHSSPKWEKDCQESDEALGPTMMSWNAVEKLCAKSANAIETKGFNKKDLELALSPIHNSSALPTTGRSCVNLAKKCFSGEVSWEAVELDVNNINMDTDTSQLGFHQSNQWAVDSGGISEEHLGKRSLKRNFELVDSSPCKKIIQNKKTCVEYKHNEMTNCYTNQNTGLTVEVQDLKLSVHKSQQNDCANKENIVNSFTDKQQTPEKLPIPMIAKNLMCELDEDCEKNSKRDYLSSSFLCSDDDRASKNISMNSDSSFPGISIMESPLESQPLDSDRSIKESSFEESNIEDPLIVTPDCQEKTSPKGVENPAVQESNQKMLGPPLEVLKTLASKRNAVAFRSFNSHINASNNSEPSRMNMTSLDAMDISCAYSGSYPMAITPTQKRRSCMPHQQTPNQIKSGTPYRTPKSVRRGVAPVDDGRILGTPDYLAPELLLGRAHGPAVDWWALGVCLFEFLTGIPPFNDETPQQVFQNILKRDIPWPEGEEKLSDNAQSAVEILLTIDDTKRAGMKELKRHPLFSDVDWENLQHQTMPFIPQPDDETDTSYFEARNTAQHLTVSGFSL
Method: 500 mM NaCl, and 0.5 mM TCEP) diluted to desired concentration or immunoprecipitated hGWL on beads with ultra-pure ATP [Promega, 25 µM] and His-tagged substrate  α-endosulfine (ENSA, 2 µM) in kinase assay buffer (50 mM Tris-HCl pH 7.5, 0.5 mM EGTA, 150 mM NaCl, 0.1% v/v NP-40 and 15 mM MgCl2). The […]
(dithiothreitol), 50% v/v Glycerol, 10% v/v SDS (sodium dodecyl sulphate), and 0.25M Tris-HCl pH 6.8) or Kinase-Glo Max reagent [Promega]. Recombinant His-tagged ENSA was purified using Ni-NTA agarose [QIAGEN] from BL21 E. coli following the manufacturer’s recommended protocol. […]
(§4) All kinase assays were repeated thrice per assay condition and each point on the concentration-dependent response curves represents the mean ± […]
Immunoprecipitation Kinase Assay
HEK293T cells were transfected with 10 µg of plasmid (Flag-tagged hGWLFL or GFP; pcDNA3-EGFP, Addgene, Cambridge MA, USA) using CaCl2. […]
incubated for a further 16–18 h. Cells were collected and washed in PBS-A followed by lysis on ice for 20 min in 1mL IP buffer (50 mM Tris-HCl pH 7.5, 150 mM NaCl, 10% v/v glycerol, 0.5% v/v NP-40, 1 mM EDTA supplemented with protease and phosphatase inhibitors (Complete and PhosStop; Roche Diagnostics)). Samples were then sonicated and clarified by centrifugation at 13,000 rpm for 30 min at 4°C. To capture Flag-tagged […]
as §1, with “S.D. […]” for “S.D.”

PKA = target: T3, PKA (Homo sapiens, UniProt P17612); test: PKA kinase assay (Promega)
T3 construct: purchased Promega
Method: as §1, §2, §3

hGWL-KinDom [1] = target: T4, hGWL-KinDom (Homo sapiens, UniProt Q96GX5); test: Kinase-Glo Max luminescence kinase assay with hGWL-KinDom; conditions: for Km / kcat: substrate of hGWL-KinDom, Kinase-Glo Max
T4 construct: that encoded amino acids (aa) 1-194 + ‘RTFC’ + 740-879 of hGWL; GST (rhinovirus 3C-protease cleavable) (N, cleaved yes); made in house; host or cells: E. coli Rosetta2(DE3)
Method: Non-radioactive kinase assays were set-up by combining hGWL-KinDom (305 µM in 20 mM HEPES pH 7.5, FL 500 mM NaCl, and 0.5 mM TCEP) diluted to desired concentration or immunoprecipitated hGWL on beads with ultra-pure ATP [Promega, 25 µM] and His-tagged substrate  α-endosulfine (ENSA, 2 µM) in kinase assay buffer (50 mM Tris-HCl pH 7.5, 0.5 mM EGTA, 150 mM NaCl, 0.1% v/v NP-40 and 15 mM MgCl2). The reaction was allowed to proceed for 30 min at 37 °C or another indicated time-point after which it was stopped with either SDS loading buffer (5X buffer, including 0.25 % w/v Bromophenol blue, 0.5 M DTT (dithiothreitol), 50% v/v Glycerol, 10% v/v SDS (sodium dodecyl sulphate), and 0.25M Tris-HCl pH 6.8) or Kinase-Glo Max reagent [Promega]. Recombinant His-tagged ENSA was purified using Ni-NTA agarose [QIAGEN] from BL21 E. coli following the manufacturer’s recommended protocol. […]
as §4
After stopping the above non-radioactive kinase assay with 1 volume of Kinase-Glo Max reagent the mixture was allowed to incubate for a further 15 min. To detect consumption of ATP, samples were transferred to white, flat-bottom 96-well plates [Thermo Fisher Scientific, Loughborough, UK] and luminescence was detected using a POLARstar Omega micro-plate reader [BMG Labtech GmbH, Ortenberg, Germany]. As this assay measures ATP, activity or ATP turnover was measured as the -ΔRLU. […]

hGWL-KinDom [2] = target: T4, hGWL-KinDom; test: Inhibitor screen of pooled library with hGWL-KinDom (Kinase-Glo Max); conditions: for inhibition at 10 µM: 10 μM screening concentration, ATP concentration = 45 μM; for Rank in inhibitor screen: rank by potency in the screen
Method: Two small-molecule compound libraries, enriched with pharmacophores known to interact with the ATP-binding site of protein kinases, were screened as a pooled library in a Kinase-GloMax luminescence-kinase assay. page 4: […] Dynabeads [Sigma-Aldrich] overnight at 4 °C. After sequential washes with IP buffer, 1:1 mix of IP and kinase assay buffers and a final wash in kinase assay buffer, the beads were then used in the kinase assay. The reaction was stopped by adding SDS loading buffer and analysed by western blot: p-ENSA and GWL levels were detected using the anti-phospho([…] and […], Prestige) antibodies. Activity was measured as the […] ratio and % kinase activity was normalised to the DMSO control. All kinases assays were repeated thrice per assay condition and each point on the concentration-dependent response curves represents the mean ± 1 S.D. PKA, ROCK1 and CDK2 kinase assays PKA and ROCK1 assays (Promega) were carried out according to the manufacturer's protocols and CDK2 assays were carried out with Histone H1 as substrate (1 µg per 20 µl reaction) according to our Kinase-Glo Max assay. CDK2 was expressed and purified from E. coli as previously described (10). Inhibitor Screens with hGWL-KinDom Two small-molecule compound libraries, enriched with pharmacophores known to interact with the ATP- binding site of protein kinases, were kindly provided by GlaxoSmithKline and Roche. We used this pooled library (582 compounds, 10 µM screening concentrations) in a Kinase-Glo Max luminescence kinase assay (11, 12) as part of a two-point screen against hGWL-KinDom kinase activity, using ATP at fixed concentrations of […] With STU as positive control at a […] 4A,B). […] rate = 5.8%; Supplementary Figure 4A). Molecular Docking - AutoDock AT13148 and GKI-1/2 were docked into the ATP-binding site of the hGWL-KinDom crystal structure (where the disordered C-helix was homology-modelled) using AutoDock 4.2.6. PDB format files for the ligand and kinase domain were pre-processed using AutoDock Tools 1.5.6 as described in Mohamed, et al. (13). (Figure 4 and Supplementary Figure 6A,B). Immunofluorescence and Time-lapse video microscopy 2.5 X 105 HeLa cells were plated onto glass coverslips in a 6-well plate, or 4-well µ-slides [Ibidi GmbH] were seeded with 5 X 104 cells and then transfected with Qiagen AllStars negative control or Hs_MASTL_6 siRNAs (14) using Lipofectamine RNAiMax [ThermoFisher Scientific]. Media was exchanged with fresh media the next day. 48 hours after siRNA treatment, only cells to be used for immunofluorescence (IF) were treated with nocodazole (200 ng/mL) and DMSO or GKI-1 at the indicated concentration. For IF, cells were fixed, stained with primary mouse anti-GWL and rabbit anti-p-ENSA antibodies, secondary Alexa Fluor 647-conjugated anti- rabbit and Alexa Fluor 488-conjugated anti-mouse antibodies, DAPI and mounted onto glass microscope slides using Diamond Antifade Mountant [Molecular Probes, ThermoFisher Scientific]. Quantitation of IF images was performed using the […]-Content Screening Station [Olympus Life Science] which acquired 220, 40x images per cover slip. Data were normalised against the AllStars negative control siRNA treated cells and values obtained from three biological replicates were reported as the mean ± 1 S.D. To assist with selecting mitotic cells, ScanR imaging software was utilised to gate for mitotic cells using the circularity factor and total DAPI parameters. To produce time-lapse videos, after 48 hours and cell treatment with DMSO or compound (cells were treated with GKI-1 for 4-h before image acquisition) cells plated in 4-well µ-slides were imaged every 5 minutes for 8.5 hours on an Olympus IX73 microscope, using a 40 x 0.95NA air objective, and recorded on an Orca-Flash 4.0 CMOS camera [Hamatsu]. The computer program Fiji (http://www.fiji.sc/Fiji) was used to generate videos from image sequence TIF files. Data were normalised against the AllStars negative control siRNA treated cells and […]

T4 sequence (Q96GX5 with tags, fused parts or gaps limits assumed): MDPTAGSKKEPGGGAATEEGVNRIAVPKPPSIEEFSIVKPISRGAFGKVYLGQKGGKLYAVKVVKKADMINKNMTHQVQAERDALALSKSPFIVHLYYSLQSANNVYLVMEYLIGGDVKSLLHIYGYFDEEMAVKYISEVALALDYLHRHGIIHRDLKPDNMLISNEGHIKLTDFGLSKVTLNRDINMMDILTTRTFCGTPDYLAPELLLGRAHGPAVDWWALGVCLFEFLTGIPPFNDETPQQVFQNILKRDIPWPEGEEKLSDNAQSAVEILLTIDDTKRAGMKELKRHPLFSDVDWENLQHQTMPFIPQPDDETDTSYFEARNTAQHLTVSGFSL
T1 sequence (Q13464 whole entry): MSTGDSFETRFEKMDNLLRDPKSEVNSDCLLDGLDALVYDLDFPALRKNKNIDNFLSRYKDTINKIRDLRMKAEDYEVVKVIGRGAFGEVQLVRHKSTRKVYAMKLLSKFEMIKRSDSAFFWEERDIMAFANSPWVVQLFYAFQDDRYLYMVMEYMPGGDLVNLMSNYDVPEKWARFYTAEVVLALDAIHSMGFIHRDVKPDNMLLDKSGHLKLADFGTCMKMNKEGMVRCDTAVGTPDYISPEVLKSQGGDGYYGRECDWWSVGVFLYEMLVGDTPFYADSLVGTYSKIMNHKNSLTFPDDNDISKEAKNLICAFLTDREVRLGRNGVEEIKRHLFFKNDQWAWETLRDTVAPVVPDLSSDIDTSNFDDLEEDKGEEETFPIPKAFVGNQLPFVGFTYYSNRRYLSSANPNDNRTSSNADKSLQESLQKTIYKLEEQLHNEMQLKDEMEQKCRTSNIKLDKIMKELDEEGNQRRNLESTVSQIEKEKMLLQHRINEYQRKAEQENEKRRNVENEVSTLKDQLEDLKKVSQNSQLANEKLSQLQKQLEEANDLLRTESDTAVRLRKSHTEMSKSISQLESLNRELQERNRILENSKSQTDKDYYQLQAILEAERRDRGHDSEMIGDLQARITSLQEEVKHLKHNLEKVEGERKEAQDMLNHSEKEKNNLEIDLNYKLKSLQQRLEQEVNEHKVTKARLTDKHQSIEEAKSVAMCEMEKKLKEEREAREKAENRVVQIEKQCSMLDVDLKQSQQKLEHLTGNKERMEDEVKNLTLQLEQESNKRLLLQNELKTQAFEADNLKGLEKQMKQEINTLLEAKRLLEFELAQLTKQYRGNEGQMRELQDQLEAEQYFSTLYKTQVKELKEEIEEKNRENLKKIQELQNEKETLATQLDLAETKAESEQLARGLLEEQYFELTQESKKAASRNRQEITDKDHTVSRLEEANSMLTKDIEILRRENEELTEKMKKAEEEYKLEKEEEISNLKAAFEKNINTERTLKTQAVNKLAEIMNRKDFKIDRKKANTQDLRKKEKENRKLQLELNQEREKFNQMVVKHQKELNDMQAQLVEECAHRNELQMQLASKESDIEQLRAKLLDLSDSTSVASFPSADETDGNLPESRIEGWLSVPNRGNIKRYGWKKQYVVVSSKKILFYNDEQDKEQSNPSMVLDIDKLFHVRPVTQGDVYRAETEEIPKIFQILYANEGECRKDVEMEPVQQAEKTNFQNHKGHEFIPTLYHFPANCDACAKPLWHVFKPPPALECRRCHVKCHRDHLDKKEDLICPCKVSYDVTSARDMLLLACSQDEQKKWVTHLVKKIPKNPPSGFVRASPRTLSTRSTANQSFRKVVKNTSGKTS

Molecule	IC50 (hGWL^FL) [nM]	inhibition of hGWL^FL (result in words) (hGWL^FL)	inhibition at 10 µM (hGWL-KinDom [2]) [%]	Rank in inhibitor screen (hGWL-KinDom [2])	Km (hGWL-KinDom [1]) [µM]	kcat (hGWL-KinDom [1]) [s⁻¹]	other results
Nc1ncnc2c1ncn2[C@@H]1O[C@H](COP(=O)(O)OP(=O)(O)OP(=O)(O)O)[C@@H](O)[C@H]1O [ATP]					17.2 ± 2.4	10.4 ± 0.48	
COc1cc[nH]c1/C=C1\C(=O)Nc2ccc(F)c(C#CC3(O)CCNCC3)c21 [GRI-1]	> 100000	did not demonstrably inhibit	67.6	1			
ENSA: His-tagged recombinant α-endosulfine, GWL substrate (protein, UniProt O43768 2-121, looked up, His tag, His-tagged recombinant α-endosulfine, GWL substrate) Alpha-endosulfine: SQKQEEENPAEETGEEKQDTQEKEGILPERAEEAKLKAKYPSLGQKPGGSDFLMKRLQKGQKYFDSGDYNMAKAKMKNKQLPSAGPDKNLVTGDHIPTPQDLPQRKSSLVTSKLAGGQVE					1.6 ± 0.3	0.2 ± 0.01	

Now from value to molecule, other results behind:

IC50 (hGWL^FL) [nM]	inhibition of hGWL^FL (result in words) (hGWL^FL)	inhibition at 10 µM (hGWL-KinDom [2]) [%]	Rank in inhibitor screen (hGWL-KinDom [2])	Molecule	Km (hGWL-KinDom [1]) [µM]	kcat (hGWL-KinDom [1]) [s⁻¹]	other results
5900				NC[C@@](O)(c1ccc(Cl)cc1)c1ccc(-c2cn[nH]c2)cc1 [AT13148, reference compound]			IC50 (ROCK1; refers to Table 2): ~6 nM; IC50 (ROCK1; ± S.D.): 11.4 ± 4 nM; inhibitory ratio (IC50 GWL^FL/IC50 GWL-KinDom) (hGWL^FL; for GKI-1: EC50 hGWL^FL vs IC50 hGWL-KinDom): 45; AT13148 IC50/STU IC50 (hGWL^FL; hGWL^FL inhibition): ~ 2; IC50 (PKA; refers to Table 2): ~11 nM; IC50 (PKA; ± S.D.): 6.13 ± 2 nM; IC50 (hGWL-KinDom [1]; Kinase-Glo Max assay, read-out: IC50 GWL-KinDom): 125 ± 1.7 nM
	did not demonstrably inhibit			Clc1ccc(Nc2ccc(-c3cn[nH]c3)cc2)cc1 [GKI-2, N-(4-chorophenyl)-4-(1H-pyrazol-4-yl)aniline]			
> 100000	did not demonstrably inhibit	37	5	CNC(C#Cc1c(F)ccc2c1C(=Cc1[nH]ccc1OC)C(=O)N2)CO (stereo not drawn) [GRI-2]			

— paper PMC5342071, “A first generation inhibitor of human Greatwall kinase, enabled by structural and functional characterisation of a minimal kinase domain construct” (Oncotarget, 2016)
